This passage reports IC50 and Ki results from ChEMBL document CHEMBL3399933, “A combination of in silico and SAR studies to identify binding hot spots of Bcl-xL inhibitors” (Bioorg Med Chem, 2015).

The structures appear in SMILES notation.

Chain of Bcl-2-like protein 1 (Q07817 whole entry): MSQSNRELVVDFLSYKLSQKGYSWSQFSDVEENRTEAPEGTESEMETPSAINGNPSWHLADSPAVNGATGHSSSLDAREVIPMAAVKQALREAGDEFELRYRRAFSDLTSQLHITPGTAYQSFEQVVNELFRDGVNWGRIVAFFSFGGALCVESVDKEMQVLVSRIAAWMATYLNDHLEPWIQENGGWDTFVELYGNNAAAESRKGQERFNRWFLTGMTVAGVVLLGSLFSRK

The test concerns the target Bcl-2-like protein 1 (Homo sapiens, UniProt Q07817). Briefly: Inhibition of GST-tagged Bcl-xL (unknown origin) measured after 1 hr incubation by fluorescence polarization assay.
Consider `CN(C)CC[C@H](CSc1ccccc1)Nc1ccc(S(=O)(=O)NC(=O)c2ccc(N3CCN(Cc4cccc(-c5ccccc5)c4)CC3)cc2)cc1[N+](=O)[O-]`, for which the midpoint of inhibition, the IC50, lay at 0.011 µM.
As for `O=C(O)c1ccccc1C(=O)c1ccc(Sc2ccc(Cl)cc2)c([N+](=O)[O-])c1`, the Ki (as a rule, a dissociation constant, usually derived from enzyme kinetics or from competition with a known ligand) amounted to 0.5 µM.
Regarding `CN(C)CC[C@H](CSc1ccccc1)Nc1ccc(S(=O)(=O)Nc2ncnc3cc(N4CCN(Cc5ccccc5-c5ccc(Cl)cc5)CC4)ccc23)cc1[N+](=O)[O-]`, the 50% inhibitory concentration (IC50) (as a rule, the point on the concentration scale where inhibition reaches its midpoint) turned out to be 0.003 µM.
Same read-out and setting: as for `CCCN(C(=O)N[C@@H](CSCC(C)C)C(=O)O)C(=O)c1cccc(C#Cc2ccc(F)cc2F)c1`, the figure is 22 µM.
Regarding `CCCN(C(=O)N[C@@H](CSCc1ccc(Br)cc1)C(=O)O)C(=O)c1cccc(C#Cc2ccc(F)cc2F)c1`, the midpoint of inhibition, the IC50, lay at 13 µM.
The compound `O=C(O)c1cccc(-c2ccc3c(c2)/C(=N/Nc2nc4ccccc4s2)CCC3)n1` registered an IC50 of 0.021 µM.
Compound `CC(C)C(C(=O)O)N1C(=O)/C(=C/c2ccc(Br)cc2)SC1=S` (centres undefined) came in with an inhibitory constant (Ki) of 2.4 µM.
On to `Cc1c(C(=O)O)c(-c2cccc(N3CCN(c4ccc(NS(=O)(=O)c5ccc(NC(CCN(C)C)CSc6ccccc6)c([N+](=O)[O-])c5)cc4)CC3)c2)c(-c2ccc(Cl)cc2)n1C` (centres undefined), for which the IC50 is 0.006 µM.
Compound `Cc1cc2c(C(C)C)c(O)c(O)c(C=O)c2c(O)c1-c1c(C)cc2c(C(C)C)c(O)c(O)c(C=O)c2c1O` [GOSSYPOL] registered an inhibitory constant (Ki) of 1 µM.
